Laboratory results published in EPA's ToxValDB 9.5.

Test system: Rattus norvegicus
Details: oral
[1] = short-term, duration: 28 days, gavage, F, Sprague-Dawley, Absolute Organ Weight: Liver increase, Ovary increase, Thyroid increase + Relative Organ Weight: Ovary increase, Thyroid increase + …
[2] = short-term, duration: 28 days, gavage, M, Sprague-Dawley, Absolute Organ Weight: Liver increase, Ovary increase, Thyroid increase + Relative Organ Weight: Ovary increase, Thyroid increase + …
[3] = short-term, duration: 28 days, gavage, M/F, Clinical Observation: Salivation Soft stool Mucous stool + Body Weight Changes: Weight gain decrease + Food Consumption: decrease + …
[4] = short-term, duration: 28 days, gavage, F, Sprague-Dawley, Clinical Observation: Salivation1000 (transient) + Body Weight Changes: Weight gain decrease + Hematology: Hgb decrease, Hct decrease, RBC …
[5] = short-term, duration: 28 days, gavage, M, Sprague-Dawley, Clinical Observation: Salivation1000 (transient) + Body Weight Changes: Weight gain decrease + Hematology: Hgb decrease, Hct decrease, RBC …
[6] = short-term, duration: 28 days, gavage, F, Sprague-Dawley, Functional Observational Battery: Locomotor activity decrease
[7] = short-term, duration: 28 days, gavage, M, Sprague-Dawley, Functional Observational Battery: Locomotor activity decrease
[8] = short-term, duration: 28 days, gavage, M/F, Clinical Observation: Salivation + Blood Chemistry: GLUC decrease, TP increase, CRN decrease, BIL increase, T-CHO increase + Absolute Organ …
[9] = subchronic, gavage, M, Sprague-Dawley
[10] = subchronic, gavage, M, Sprague-Dawley, Clinical Observation: Excessive salivation Decreased spontaneous locomotors Decreased respiration rate Incomplete eyelid opening + …

Structure (SMILES): C[C@@H](NCCc1ccc(O)cc1)[C@@H](O)c1ccc(O)cc1.Cl [Ritodrine hydrochloride]
- NOEL (subchronic, duration: 35 days, gavage, M/F, Sprague-Dawley, Deaths + Clinical Observation: Locomotor activity decrease, Increased respiration rate Deep respiration Prone, lateral, or supine position …): 32 mg/kg-day

Structure (SMILES): C=CCOCCCCO [4-allyloxy-1-butanol]
- NOEL (short-term, duration: 28 days, gavage, M/F, Deaths + Clinical Observation: nasal discharge flatulence + Body Weight Changes: body weight gain decrease + Food Consumption: decrease + …): 10 mg/kg-day

Structure (SMILES): CCCCC(CC)COC(=O)C1CC=CCC1C(=O)OCC(CC)CCCC (configuration not stated) [Bis(2-ethylhexyl) 4-cyclohexene-1,2-dicarboxylate]
- NOEL (subchronic, duration: 42 days, gavage, M, CD(SD), Hematology: WBC decrease, LYMPH decrease, NEUT decrease, Large unstained cell decrease + Absolute Organ Weight: Kidney increase + Relative …): 100 mg/kg-day

Structure (SMILES): O=C(O)c1ccccc1Cl [2-Chlorobenzoic acid]
- NOEL (subchronic, gavage, M, Sprague-Dawley, Clinical Observation: Salivation + Body Weight Changes: decrease + Food Consumption: decrease + Hematology: RBC decrease, Hgb decrease, RET …): 40 mg/kg-day

Structure (SMILES): CC(C)(C)c1cc(Cc2cc(C(C)(C)C)c(O)c(C(C)(C)C)c2)cc(C(C)(C)C)c1O [4,4'-Methylenebis(2,6-di-t-butylphenol)]
- LOEL [1]: 200 mg/kg-day
- NOEL [1]: 40 mg/kg-day
- LOEL [2]: 1000 mg/kg-day
- NOEL [2]: 200 mg/kg-day

Structure (SMILES): CC(O)C(=O)[O-].[Na+] (racemic) [Sodium DL-lactate]
- NOEL (subchronic, duration: 42 days, gavage, M, CD(SD), Thyroid Hormone: T4 increase, TSH increase + Histopathology: Stomach-Hyperplasia, squamous, limiting ridge): 100 mg/kg-day

Structure (SMILES): [Bi] [Bismuth]
- NOEL (short-term, duration: 28 days, gavage, Crj:CD): 1000 mg/kg-day

Structure (SMILES): Cl.O=C(O)/C=C/c1ccc(Cn2ccnc2)cc1 [Ozagrel hydrochloride]
- NOEL (short-term, duration: 28 days, gavage, M/F, Sprague-Dawley, Deaths + Clinical Observation: Locomotor activity decrease, Respiration rate increase + Body Weight Changes: decrease + Food Consumption: …): 625 mg/kg-day

Structure (SMILES): C=CC(=O)OCc1c(Br)c(Br)c(Br)c(Br)c1Br [(Pentabromophenyl)methyl acrylate]
- NOEL (short-term, duration: 28 days, gavage, M/F, Clinical Observation: Salivation increase, Hunchback position Staggering gait Lethargy Ptosis Emacation Flush in extremities + Urinalysis: S…): < 15 mg/kg-day

Structure (SMILES): CC(C)(c1ccc(O)cc1)c1cc(C(C)(C)c2ccc(O)cc2)c(O)cc1O [4,6-Bis[2-(4-hydroxyphenyl)propan-2-yl]benzene-1,3-diol]
- NOAEL [3]: 20 mg/kg-day
- NOEL [3]: < 5 mg/kg-day

Structure (SMILES): CC(C)(C)OOC(C)(C)CCC(C)(C)OOC(C)(C)C [2,5-Dimethyl-2,5-di-(tert-butylperoxy)hexane]
- LOAEL [4]: 200 mg/kg-day
- LOEL [4]: 200 mg/kg-day
- NOAEL [4]: 40 mg/kg-day
- NOEL [4]: 40 mg/kg-day
- LOAEL [5]: 1000 mg/kg-day
- LOEL [5]: 200 mg/kg-day
- NOAEL [5]: 200 mg/kg-day
- NOEL [5]: 40 mg/kg-day

Structure (SMILES): Cc1ncc[nH]1 [2-Methylimidazole]
- NOEL (subchronic, diet, M/F, Fischer 344, Body Weight Changes: decrease + Food Consumption: decrease + Hematology: Plt increase, Hct decrease, Hgb decrease, RBC decrease, Ret …): < 60 mg/kg-day

Structure (SMILES): COC(CC#N)OC [3,3-Dimethoxypropiononitrile]
- NOEL (short-term, duration: 28 days, gavage, M/F, Clinical Observation: Lethargy Salivation + Body Weight Changes: body weight gain decrease + Urinalysis: Urine volume increase, pH decrease…): < 15 mg/kg-day

Structure (SMILES): O=C(O)c1cc(N=Nc2ccc(S(=O)(=O)Nc3ccccn3)cc2)ccc1O [Sulfasalazine]
- NOEL (subchronic, duration: 13 weeks, gavage, M/F, Fischer 344, Body Weight Changes: decrease + Blood Chemistry: TSH increase T3 decrease T4 decrease + Absolute Organ Weight: Right kidney increase + …): < 84 mg/kg-day

Structure (SMILES): CC1(C)C(C=CC(=O)OC(C(F)(F)F)C(F)(F)F)C1C(=O)OC(C#N)c1cccc(Oc2ccccc2)c1 (configuration not stated)
- NOEL (short-term, duration: 28 days, gavage, M/F, Deaths + Clinical Observation: Salivation + Urinalysis: Specific gravity decrease, pH decrease + Blood Chemistry: GPT increase, BUN …): < 5 mg/kg-day

Structure (SMILES): O=C1NC(=O)c2c(Cl)c(Cl)c(Cl)c(Cl)c21 [1H-Isoindole-1,3(2H)-dione, 4,5,6,7-tetrachloro-]
- LOEL [6]: 1000 mg/kg-day
- NOEL [6]: 300 mg/kg-day
- LOEL [7]: 1000 mg/kg-day
- NOEL [7]: 300 mg/kg-day

Structure (SMILES): [Cl-].[Cs+] [Caesium chloride]
- NOEL (subchronic, duration: 90 days, gavage, M/F, Sprague-Dawley, Deaths + Clinical Observation: Irritability Convulsion, preening Locomotor activity increase + Body Weight Changes: decrease + Food …): < 10 mg/kg-day

Structure (SMILES): CCCC1CCC(C2CCC(=O)CC2)CC1 (configuration not stated) [4'-Propyl[1,1'-bi(cyclohexane)]-4-one]
- NOEL (short-term, duration: 28 days, gavage, M/F, Clinical Observation: Salivation + Blood Chemistry: IP increase, CRN increase, GPT increase, BIL increase, TP increase, T-CHO increase, …): 8 mg/kg-day

Structure (SMILES): SCC1CSC(CS)CS1 (configuration not stated) [1,4-Dithiane-2,5-dimethanethiol]
- NOEL (short-term, duration: 28 days, gavage, M/F, Clinical Observation: Salivation Ataxic gait Locomotor activity decrease + Body Weight Changes: Body weight gain decrease + Food Consumption…): 20 mg/kg-day

Structure (SMILES): COc1c(N2CCNC(C)C2)c(F)cc2c(=O)c(C(=O)O)cn(C3CC3)c12.O (configuration not stated)
- NOAEL (chronic, duration: 182 days, gavage, M/F, Wistar, Clinical Observation: Loss of increaseper incisor + Body Weight Changes: decrease + Urinalysis: Ca increase + Hematology: SEG decrease, …): 30 mg/kg-day

Structure (SMILES): CNC[C@H](O)c1cccc(O)c1.Cl [(-)-Phenylephrine hydrochloride]
- NOEL (subchronic, duration: 12 weeks, diet, M/F, Fischer 344, Deaths + Clinical Observation: Hyperexcitable + Body Weight Changes: decrease + Histopathology: Eye-Chronic keratitis Testis-Atrophy Seminal…): 240 mg/kg-day

Structure (SMILES): c1ccc2n[nH]nc2c1 [1,2,3-Benzotriazole]
- NOEL (subchronic, gavage, M, Sprague-Dawley, Blood Chemistry: AST increase, ALT increase, TP decrease, A/G increase, PL increase, K increase): < 30 mg/kg-day

Structure (SMILES): O=c1ccc2ccccc2o1 [Coumarin]
- NOEL (subchronic, duration: 13 weeks, gavage, M/F, Fischer 344, Deaths + Body Weight Changes: decrease + Hematology: RBC increase + Blood Chemistry: Ch E decrease, Cl decrease, TP increase, Alb increase, …): < 19 mg/kg-day

Structure (SMILES): NNC(N)=S [Thiosemicarbazide]
- NOEL (subchronic, gavage, M, Sprague-Dawley, Functional Observational Battery: Tonic convulsion Hypersensitive reaction in touch response and tail pinch response + Body Weight Changes: …): 0.4 mg/kg-day

Structure (SMILES): OCCOc1ccccc1 [2-Phenoxyethanol]
- NOAEL (subchronic, duration: 90 days, gavage, M/F, Clinical Observation: Lack of grooming Lethargy Prostration + Body Weight Changes: decrease + Food Consumption: decrease + Water Consumption…): 80 mg/kg-day

Structure (SMILES): CC(C)(O)C1CCCCC1 [Cyclohexanemethanol, .alpha.,.alpha.-dimethyl-]
- NOEL [8]: < 8 mg/kg-day

Structure (SMILES): COc1ccc(C[C@@H](C)NC[C@H](O)c2ccc(O)c(NC=O)c2)cc1.COc1ccc(C[C@@H](C)NC[C@H](O)c2ccc(O)c(NC=O)c2)cc1.O=C(O)/C=C/C(=O)O [Formoterol hemifumarate]
- NOEL (subchronic, duration: 35 days, gavage, F, Sprague-Dawley, Deaths + Clinical Observation: Tachycardia Tachypnea Salivation + Body Weight Changes: Body weight gain decrease + Blood Chemistry: GLUC …): 0.3 mg/kg-day
- NOEL (subchronic, duration: 35 days, gavage, M, Sprague-Dawley, Deaths + Clinical Observation: Tachycardia Tachypnea Salivation + Body Weight Changes: Body weight gain decrease + Blood Chemistry: GLUC …): 0.03 mg/kg-day

Structure (SMILES): CC1(C)CC(O)CC(C)(C)N1[O] [4-Hydroxy-2,2,6,6-tetramethylpiperidin-1-yl)oxidanyl]
- NOEL (short-term, duration: 28 days, gavage, M/F, Clinical Observation: Salivation + Hematology: Trend of Anemia + Absolute Organ Weight: Spleen increase, Liver increase + Histopathology: …): 40 mg/kg-day

Structure (SMILES): CCCCOCCOCCO [2-(2-Butoxyethoxy)ethanol]
- NOAEL (chronic, duration: 91 days, drinking water, M/F, Fischer 344, Body Weight Changes: Terminal body weight decrease + Food Consumption: decrease + Water Consumption: decrease + Hematology: RBC decrease, …): 250 mg/kg-day

Structure (SMILES): CC(C)(C)NN.Cl [Hydrazine, (1,1-dimethylethyl)-, monohydrochloride]
- NOEL (subchronic, gavage, M, Sprague-Dawley, Hematology: RBC decrease, Hgb decrease, Hct decrease, MCHC decrease, MCV increase, MCH increase, R RET increase, R + Absolute Organ Weight…): 4 mg/kg-day

Structure (SMILES): O=[N+]([O-])C(Br)=Cc1ccccc1 [beta-Bromo-beta-nitrostyrene]
- NOEL (subchronic, gavage, M/F, Fischer 344, Deaths + Body Weight Changes: decrease>150 af>>300 + Hematology: RBC increase, WBC increase, Seg increase, Ret increase + Blood Chemistry: …): < 37 mg/kg-day

Structure (SMILES): O=C1c2ccccc2C(=O)C1c1ccc2ccccc2n1 [D & C Yellow 11]
- NOEL (subchronic, diet, F, Fischer 344, Body Weight Changes: decrease + Absolute Organ Weight: Liver increase, Lung increase + Relative Organ Weight: Liver increase, Lung increase…): < 37 mg/kg-day
- NOEL (subchronic, diet, M/F, Fischer 344, Body Weight Changes: decrease + Absolute Organ Weight: Liver increase, Lung increase + Relative Organ Weight: Liver increase, Lung increase…): < 48 mg/kg-day

Structure (SMILES): C=COCC(CC)CCCC (configuration not stated) [1-Ethenoxy-2-ethylhexane]
- NOEL (short-term, duration: 28 days, gavage, M/F, Sprague-Dawley, Urinalysis: Occult blood increase + Blood Chemistry: ALP increase, Cho increase, PL increase + Relative Organ Weight: Liver increase, …): 8 mg/kg-day

Structure (SMILES): O=C1CCCCCCCCCCCN1 [Azacyclotridecan-2-one]
- NOAEL (subchronic, duration: 90 days, gavage, M/F, Sprague-Dawley, Deaths: None (There were dead animals caused by intubation error) + Blood Chemistry: K increase, TP increase, Alb increase + Histopathology…): 25 mg/kg-day

Structure (SMILES): O=S(=O)(c1cc(Br)c(OCC(Br)CBr)c(Br)c1)c1cc(Br)c(OCC(Br)CBr)c(Br)c1 (configuration not stated) [1,1'-Sulfonylbis[3,5-dibromo-4-(2,3-dibromopropoxy)benzene]]
- NOAEL [9]: 1000 mg/kg-day
- NOEL [9]: 1000 mg/kg-day

Structure (SMILES): CCCCC(CC)C(=O)OOC(C)(C)C1CCCCC1 (configuration not stated) [2-Cyclohexylpropan-2-yl 2-ethylhexaneperoxoate]
- NOEL [8]: < 8 mg/kg-day

Structure (SMILES): COc1c2occc2cc2ccc(=O)oc12 [8-Methoxypsoralen]
- NOEL (subchronic, duration: 13 weeks, gavage, M/F, Fischer 344, Deaths + Clinical Observation: Rough hair coat Hunched appearance + Body Weight Changes: decrease + Absolute Organ Weight: Liver increase + …): < 25 mg/kg-day

Structure (SMILES): Cc1cccc(C)c1N [2,6-Dimethylaniline]
- NOEL (subchronic, duration: 13 weeks, gavage, M/F, Fischer 344, Body Weight Changes: decrease + Hematology: WBC decrease, RBC decrease, Hgb decrease, Hct decrease, Lympho decrease + Blood Chemistry: K …): 20 mg/kg-day

Structure (SMILES): CC(C)(C)Oc1ccc(Cl)cc1 [1-Chloro-4-tert-butoxybenzene]
- NOAEL [10]: 100 mg/kg-day
- NOEL [10]: 20 mg/kg-day
